Measurements from paper PMC3869726, “Inhibition of Human Neutrophil Elastase by Pentacyclic Triterpenes” (PLoS ONE, 2013).
Several values for one entry are separate records, joined by “and”; a condition that tells them apart may be missing. Equal entries are not always repeated.

Tests used:
[1] = molecular target: T1, Human neutrophil elastase (HNE) (Homo sapiens, UniProt P08246); assay: HNE activity inhibitory bioassay (MeO-Suc-Ala-Ala-Pro-Val-pNA hydrolysis, absorbance 405 nm); type: biochemical; conditions: for inhibition at 100 µM: tetracyclic triterpenoids (Table S3); for Anti-HNE activity, inhibitory ratio: n = 3; for IC50: in vitro HNE assay, read-out: IC50, HNE inhibition
T1 construct: HNE (EC 3.4.21.37) from human leukocytes was purchased; purchased Innovative Research Company (Novi, Michigan); host or cells: human leukocytes (natural source)
T1 sequence (P08246 30-247 limits assumed): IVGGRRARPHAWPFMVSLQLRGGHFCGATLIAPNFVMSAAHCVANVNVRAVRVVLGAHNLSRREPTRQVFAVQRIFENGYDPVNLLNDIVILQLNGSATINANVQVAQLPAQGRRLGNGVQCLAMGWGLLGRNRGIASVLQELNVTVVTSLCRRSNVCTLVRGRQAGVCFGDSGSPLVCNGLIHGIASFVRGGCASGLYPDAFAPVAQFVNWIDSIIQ

[2] = test system: acute smoke-induced airway inflammation in mice; assay: Acute smoke-induced lung (airway) inflammation model in mice, BALF analysis
HNE = molecular target: T2, HNE (Homo sapiens, UniProt P08246); assay: 1H NMR spin-lattice relaxation rates (Rns, Rse) of ligand with and without HNE; type: binding; conditions: pH 7.0, 298 K;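 note: ligand in d6-DMSO with 50 mM phosphate buffer, selective and nonselective spin-lattice rates from an inversion-recovery pulse sequence, computed by initial-rate approximation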
T2 construct: HNE (EC 3.4.21.37) from human leukocytes was purchased; purchased Innovative Research Company (Novi, Michigan); host or cells: human leukocytes (natural source)
T2 sequence (P08246 30-247 limits assumed): T1 sequence (P08246 30-247 limits assumed)

[3] = molecular target: T1, Human neutrophil elastase (HNE); assay: Enzyme inhibition kinetic analysis of HNE (Michaelis-Menten / Lineweaver-Burk); type: biochemical
[4] = smoke exposure, 50 mg/kg intraperitoneal

## CC(C)(O)[C@@H]1CC[C@](C)([C@H]2[C@@H](O)C[C@@]3(C)[C@@H]4C[C@H](O[C@@H]5O[C@H](CO)[C@@H](O)[C@H](O)[C@H]5O)[C@H]5C(C)(C)[C@@H](O[C@@H]6OC[C@@H](O)[C@H](O)[C@H]6O)CC[C@@]56C[C@@]46CC[C@]23C)O1 [Compound 7, astragaloside IV]
[1]
  inhibition at 100 µM: 3.27%
[2]; smoke exposure
  levels of BALF NE and TNF-α in vivo: did not observe the inhibitory effects
[2]; smoke exposure, intraperitoneal, negative control
  airway inflammation: did not inhibit

## C[C@H]1[C@H](C)CC[C@]2(C(=O)O)CC[C@]3(C)C(=CC[C@@H]4[C@@]5(C)CC[C@H](O)C(C)(C)[C@@H]5CC[C@]43C)[C@H]12 [Compound 1, ursolic acid]
[1]; 1 µM compound
  Anti-HNE activity, inhibitory ratio: 12.22±6.64%
[1]; 1 µM compound, listed as Ursolic acid (1)
  Anti-HNE activity, inhibitory ratio: 12.2%
[1]; 3 µM compound
  Anti-HNE activity, inhibitory ratio: 36.47±5.75 %
[1]; 10 µM compound
  Anti-HNE activity, inhibitory ratio: 80.84±3.14 %
[1]; 30 µM compound
  Anti-HNE activity, inhibitory ratio: 82.98±5.67 %
[1]; 30 µM compound, listed as ursolic acid
  Anti-HNE activity, inhibitory ratio: more than 80%
[1]; 100 µM compound
  Anti-HNE activity, inhibitory ratio: 88.47±2.96 %
[1]
  IC50: 5.51 µM and ~5.51 µM
HNE; free ligand 1 mM
  Rns/Rse, proton H3: 0.93
  Rns/Rse, proton H12: 0.88
  Rns/Rse, proton H18: 0.92
HNE; ligand 1 mM + HNE 5 µM
  Rns/Rse, proton H3: 0.73
  Rns/Rse, proton H12: 0.62
  Rns/Rse, proton H18: 0.81
[3]; 0, 3, 10 µM ursolic acid, six substrate concentrations 0.2-2 mM, 37°C
  mode of HNE inhibition with respect to substrate: competitively inhibits HNE
[3]; as a function of ursolic acid concentration 0-10 µM, P>0.05
  apparent maximum velocity Vmax′, trend: invariable
[3]; ursolic acid increasing from 0 µM to 10 µM, P<0.05
  apparent Michaelis-Menten constant Kapp, trend: increased
[2]; 50 mg/kg intraperitoneal
  inhibition of the smoke-induced increase in BALF NE: 54%
  inhibition of the smoke-induced increase in BALF TNF-α: 38%
[2]; doses 10, 30, 100 mg/kg, dose-dependent
  dose with significant inhibition of BALF TNF-α: ≥ 10 mg/kg
[2]; doses 10, 30, 100 mg/kg, dose-dependent, P<0.05
  dose with significant inhibition of BALF NE: 30 mg/kg
[2]; smoke exposure
  levels of BALF NE and TNF-α in vivo: significantly suppressed
[2]; [4]
  number of neutrophils in BALF: significantly reduced
  number of total leukocytes in BALF: significantly reduced

## CC(C)C1=CC(=O)C(C)(C2[C@H](O)C[C@@]3(C)[C@@H]4CC=C5[C@@H](CC[C@@H](OC6OCC(O)C(O)C6OC6OC(C)C(O)C(O)C6O)C5(C)C)[C@]4(C)C(=O)C[C@]23C)O1 (stereo partly drawn) [Compound 12]
[1]
  inhibition at 100 µM: 0.8%

## C=C(C)[C@@H]1CC[C@]2(C)CC[C@]3(C)[C@H](CC[C@@H]4[C@@]5(C)CC[C@H](O)C(C)(C)[C@@H]5CC[C@]43C)[C@@H]12 [Compound 6, lupeol]
[1]; 1 µM compound
  Anti-HNE activity, inhibitory ratio: 9.38±6.80%
[1]; 3 µM compound
  Anti-HNE activity, inhibitory ratio: 19.01±10.00 %
[1]; 10 µM compound
  Anti-HNE activity, inhibitory ratio: 51.92±15.22 %
[1]; 30 µM compound
  Anti-HNE activity, inhibitory ratio: 88.00±6.26 %
[1]; 30 µM compound, listed as lupeol
  Anti-HNE activity, inhibitory ratio: more than 80%
[1]; 100 µM compound
  Anti-HNE activity, inhibitory ratio: 93.56±1.19 %
[1]
  IC50: ~8.2 µM
HNE; free ligand 1 mM
  Rns/Rse, proton H13: 1.67
  Rns/Rse, proton H19: 1.03
  Rns/Rse, proton H24: 1.03
  Rns/Rse, proton H29a: 1.23
  Rns/Rse, proton H29b: 1.24
HNE; ligand 1 mM + HNE 5 µM
  Rns/Rse, proton H13: 1.27
  Rns/Rse, proton H19: 1.00
  Rns/Rse, proton H24: 1.03
  Rns/Rse, proton H29a: 1.23
  Rns/Rse, proton H29b: 1.22

## CC1(C)[C@@H](O)CC[C@]2(C)[C@H]3C(=O)C=C4[C@@H]5C[C@@](C)(C(=O)O)CC[C@]5(C)CC[C@@]4(C)[C@]3(C)CC[C@@H]12 [Compound 3, glycyrrhetinic acid]
[1]; 1 µM compound
  Anti-HNE activity, inhibitory ratio: 0.06±6.40%
[1]; 3 µM compound
  Anti-HNE activity, inhibitory ratio: 1.05±5.24%
[1]; 10 µM compound
  Anti-HNE activity, inhibitory ratio: 21.09±4.96%
[1]; 30 µM compound
  Anti-HNE activity, inhibitory ratio: 45.84±0.41 %
[1]; 100 µM compound
  Anti-HNE activity, inhibitory ratio: 75.20±2.89 %
[1]
  IC50: ~36.9 µM
HNE; free ligand 1 mM
  Rns/Rse, proton H3: 0.96
  Rns/Rse, proton H5: 0.92
  Rns/Rse, proton H12: 0.94
  Rns/Rse, proton H18: 2.29
HNE; ligand 1 mM + HNE 5 µM
  Rns/Rse, proton H3: 0.74
  Rns/Rse, proton H5: 0.84
  Rns/Rse, proton H12: 0.85
  Rns/Rse, proton H18: 0.81

## C=C(C)[C@@H]1CC[C@]2(C(=O)O)CC[C@]3(C)[C@H](CC[C@@H]4[C@@]5(C)CC[C@H](O)C(C)(C)[C@@H]5CC[C@]43C)[C@@H]12 [Compound 5, betulinic acid]
[1]; 1 µM compound
  Anti-HNE activity, inhibitory ratio: 8.25±1.88%
[1]; 3 µM compound
  Anti-HNE activity, inhibitory ratio: 46.57±2.47 %
[1]; 10 µM compound
  Anti-HNE activity, inhibitory ratio: 74.20±2.32 %
[1]; 30 µM compound
  Anti-HNE activity, inhibitory ratio: 80.58±2.21 %
[1]; 30 µM compound, listed as betulinic acid
  Anti-HNE activity, inhibitory ratio: more than 80%
[1]; 100 µM compound
  Anti-HNE activity, inhibitory ratio: 82.41±1.37 %
[1]
  IC50: ~6.83 µM
HNE; free ligand 1 mM
  Rns/Rse, proton H13: 1.51
  Rns/Rse, proton H19: 0.82
  Rns/Rse, proton H24: 1.02
  Rns/Rse, proton H29a: 0.96
  Rns/Rse, proton H29b: 0.97
HNE; ligand 1 mM + HNE 5 µM
  Rns/Rse, proton H13: 0.97
  Rns/Rse, proton H19: 0.79
  Rns/Rse, proton H24: 0.95
  Rns/Rse, proton H29a: 0.95
  Rns/Rse, proton H29b: 0.96

## CC(C)=CCCC(C)(OC1OC(CO)C(O)C(O)C1O)C1CCC2(C)C1C(O)CC1C3(C)CCC(O)C(C)(C)C3C(OC3OC(CO)C(O)C(O)C3OC3OC(C)C(O)C(O)C3O)CC12C (stereo not drawn) [Compound 8]
[1]
  inhibition at 100 µM: 4.01%

## CC(C)=CCCC1(C)CCC2(C)C3CCC4(C)C(C)C(=O)CCC4C3(C)CCC2(C)C1 (stereo not drawn) [Compound 10]
[1]
  inhibition at 100 µM: 2.33%

## CC(=O)OC1CC(O)C23COC(O)C1(C)C2CC(O)C1(C)C3C(=O)C(OC(C)=O)C2(C)C(c3ccoc3)CC3OC321 (stereo not drawn) [Compound 11]
[1]
  inhibition at 100 µM: 4.28%

## COC(=O)[C@]12CCC(C)(C)C[C@H]1[C@H]1C(=O)C=C3[C@@]4(C)C=C(C#N)C(=O)C(C)(C)[C@@H]4CC[C@@]3(C)[C@]1(C)CC2 [CDDO-Me, C-28 methyl ester of 2-cyano-3,12-dioxoolen-1,9-dien-28-oic acid, reference compound]
[1]
  IC50: 16.6 µM

## CC1(C)[C@@H](O[C@H]2O[C@H](C(=O)O)[C@@H](O)[C@H](O)[C@H]2O[C@@H]2O[C@H](C(=O)O)[C@@H](O)[C@H](O)[C@H]2O)CC[C@]2(C)[C@H]3C(=O)C=C4[C@@H]5C[C@@](C)(C(=O)O)CC[C@]5(C)CC[C@@]4(C)[C@]3(C)CC[C@@H]12 [Compound 4, glycyrrhizin]
[1]; 1 µM compound
  Anti-HNE activity, inhibitory ratio: 10.25±1.73%
[1]; 3 µM compound
  Anti-HNE activity, inhibitory ratio: 19.00±6.99 %
[1]; 10 µM compound
  Anti-HNE activity, inhibitory ratio: 28.21±4.84 %
[1]; 30 µM compound
  Anti-HNE activity, inhibitory ratio: 40.89±1.28 %
[1]; 100 µM compound
  Anti-HNE activity, inhibitory ratio: 78.66±1.99 %
[1]
  IC50: ~27.6 µM
HNE; free ligand 1 mM
  Rns/Rse, proton H9: 0.64
  Rns/Rse, proton H12: 0.87
  Rns/Rse, proton glc-H1’: 0.54
  Rns/Rse, proton glc-H1”: 0.49
HNE; ligand 1 mM + HNE 5 µM
  Rns/Rse, proton H9: 0.64
  Rns/Rse, proton H12: 0.74
  Rns/Rse, proton glc-H1’: 0.31
  Rns/Rse, proton glc-H1”: 0.47

## CC(=O)OC(C)(C)/C=C/C(=O)[C@](C)(O)[C@H]1[C@H](O)C[C@@]2(C)[C@@H]3CC=C4[C@@H](C[C@H](O)C(=O)C4(C)C)[C@]3(C)C(=O)C[C@]12C [Compound 9]
[1]
  inhibition at 100 µM: 5.77%

## CC(C)(C)C(=O)Oc1ccc(S(=O)(=O)Nc2ccccc2C(=O)NCC(=O)O)cc1 [ONO-5046, Sivelestat sodium hydrate, reference compound]
[2]; intraperitoneal, positive control
  smoke-induced increase in BALF inflammatory cells and proinflammatory cytokine levels: prevented
